What was measured:
MDA-MB-231 line = test system: MDA-MB-231 line; set-up: method as in PMID 25412049; details: cited from earlier work
WRL68 cells [1] = assay: Morphological changes, optical microscopy; type: cell-based, human; details: WRL68, IC50, 24 h
Experimental: (§1) Optical microscopy (Olympus® model CX22LED, Tokyo, Japan) images of the cultures were obtained in the mentioned conditions at 10 and 40 magnifications for the cell line each after 24 h of the treatment’s application.

HepG2 cells [2] = assay: Morphological changes, optical microscopy; type: cell-based, human; details: HepG2, IC50, 24 h
Experimental: as §1

MCF-7 cells = test system: MCF-7 cells; set-up: method as in PMID 21142067; details: MCF-7, 10 and 100 µM; cited from earlier work
[3] = test system: AKT/PI3K and ERK1/2/MAPK signaling pathways in WRL68 cells; assay: Muse PI3K/MAPK Dual Pathway activation assay; type: cell-based, human; details: WRL68, IC50, 24 h
Experimental: (§2) The Muse® PI3K/MAPK Dual Pathway activation kit purchased from Millipore (Billerica, MA, USA) was employed to examine both the PI3K and MAPK signaling pathways simultaneously using the Muse Cell Analyzer (Merck-Millipore®, Burlington, MA, USA). The protocol followed was performed as the manufacturer instructions. The samples (quadruplicates for three different populations of each cell line) were analyzed in the Muse^TM Cell Analyzer.

[4] = test system: AKT/PI3K and ERK1/2/MAPK signaling pathways in HepG2 cells; assay: Muse PI3K/MAPK Dual Pathway activation assay; type: cell-based, human; details: HepG2, IC50, 24 h
Experimental: as §2

lymphoma cells (U937) = test system: lymphoma cells (U937); set-up: method as in PMID 21142067; details: U937, 10 and 100 µM; cited from earlier work
WRL68 cells [5] = assay: Wound healing (scratch) assay; type: cell-based, human; details: WRL68, IC50 concentration, 0-42 h
Experimental: (§3) The wound healing or scratch assay was used to assess the migration capacity of the WRL68 and HepG2 cell lines. With this objective, 3 × 10^5 cells were seeded per well in a 6-well plate in triplicate for each cell line. When the populations reached a confluence of 80–90%, a sterile pipette tip was used to disrupt in a straight line (make a wound) the layer of cells attached to the culture surface. Subsequently, it was washed with PBS to prevent the cells that had been lifted from being able to rejoin. […] Quantification of wound healing was performed by using the MRI-Wound Healing Tool for ImageJ software (ImageJ 1.53a version).

HepG2 cells [6] = assay: Wound healing (scratch) assay; type: cell-based, human; details: HepG2, IC50 concentration, 0-42 h
Experimental: as §3

[7] = test system: p53, c-Myc, Bcl-2, SOD, HSP-60 and Bax proteins in WRL68 cells; assay: Western blot of protein expression; type: cell-based, human; details: WRL68, IC50, 24 h, normalized to actin
Experimental: (§4) Triplicates of three different populations of each cell line, WRL68 and HepG2, were seeded in 6-well plates with a density of 2.5 × 10^5 cells per well. […] For protein extraction, each sample was resuspended in 20 μL of RIPA buffer (150 mM NaCl, 1% Igepal, 0.5% deoxycholic acid, 0.1% SDS, 50 mM Tris HCl pH 7.5, 0.2 M PMSF, […] and Thermo Scientific® PierceTM inhibitor cocktail, Waltham, MA, USA), and held on ice for 15 min. They were centrifuged at 15,000× g for 10 min at 4 °C, the supernatant was collected and stored at −80 °C for further analysis. The quantification of the protein concentration was carried out through the Bradford method. The methodology used for Western blot analysis is described by Mokhtari et al.. Brie fly, the initial separation of the extracts was performed by a 12% polyacrylamide gel electrophoresis under denaturing conditions (SDS-PAGE). A standardized load of 30 μg of protein per well was used after denaturing the samples at 95 °C for 5 min and adding the loading buffer (0.25 mM Tris-HCl pH 6.8, 10% SDS, 1 M DTT and glycerol). The proteins were transferred, by the semi-dry transfer method, (60 mA per gel, 1 h) using the TransBlot Turbo system (BioRad®, Berkeley, CA, USA), to a PVDF membrane. The membranes were blocked with blocking buffer (TBS, 0.1% Tween-20 and 3% skimmed milk) for 1 h at room temperature, incubating with the specific primary antibodies against the proteins studied at 4 °C overnight. The primary antibodies (from Santa Cruz Biotechnology®, Dallas, TX, USA) were diluted in blocking buffer. The membranes were washed with TBS-T (TBS, 0.1% Tween-20) for 5 min three times under stirring, and incubated with the corresponding secondary antibody (from Sigma®, St. Louis, MO, USA) (Table 1) for 1 h at room temperature, repeating the previous washing process later. These secondary antibodies have the enzyme horseradish peroxidase (HRP) coupled, which allows chemiluminescence to be detected in the presence of the protein band due to its ability to oxidize the luminol solution (ECL-plus Western-blot detection system, GE Healthcare, Chicago, IL, USA). The reaction produced was captured inside a ChemiDoc Imaging System (Bio-Rad®, Berkely, CA, USA). The program used to analyze the images obtained was Image Lab Software (Bio-Rad®, for PC 6.1 version). The expression of each protein was normalized referring to actin levels and were represented based on the results obtained for the control situation (WRL68 line without treatment) as percentage of expression (%). The expression obtained in each protein was analyzed through the mentioned program in triplicate.

[8] = test system: p53, c-Myc, Bcl-2, SOD, HSP-60 and Bax proteins in HepG2 cells; assay: Western blot of protein expression; type: cell-based, human; details: HepG2, IC50, 24 h, normalized to actin
Experimental: as §4

C[C@H]1[C@H](C)CC[C@]2(CO)CC[C@]3(C)C(=CC[C@@H]4[C@@]5(C)CC[C@H](O)C(C)(C)[C@@H]5CC[C@]43C)[C@H]12 [uvaol, urs-12-ene-3,28-diol]
changes in cell cycle progression (MDA-MB-231 line): did not produce changes in the progression of the cycle
cell morphology change (WRL68 cells [1]): become rounded and have cytoplasmic projections
cell morphology change (HepG2 cells [2]): slightly more rounded, with very sharp projections and a loss of adhesion to the support
induction of apoptosis (MCF-7 cells): did not show this effect
change in percentage of cells in which only ERK1/2/MAPK was activated [3]: not altered
decrease in cells that only activated the AKT/PI3K pathway [3]: 22%
increase in cells that activated the dual pathway (MAPK and PI3K) [3]: 25%
net balance: activation of the ERK1/2/MAPK signaling pathway [3]: 25%
net balance: modification of the PI3K pathway [3]: no modification
change in percentage of cells that only activated ERK1/2/MAPK [4]: not altered
decrease in cells that only activated AKT/PI3K [4]: 25%
increase in cells with activated dual pathway (MAPK and PI3K) [4]: 9%
net balance: increase of ERK1/2/MAPK signaling pathway [4]: 9%
net balance: inhibition of AKT/PI3K signaling pathway [4]: 16%
induction of apoptosis (lymphoma cells (U937)): induced apoptosis
wound closure (cell migration) (WRL68 cells [5]): wound healing was maintained during more hours than the control group
wound closure (cell migration) (HepG2 cells [6]): the wound remains until the end of the trial
Bax expression vs control [7]: did not produce changes
Bcl-2 expression vs control [7]: did not produce changes
HSP-60 expression vs control [7]: increased in both lines
SOD expression vs control [7]: increased
c-Myc expression vs control [7]: increase
p53 expression vs control [7]: increased
Bax expression vs control [8]: increased
Bcl-2 expression vs control [8]: decreased
HSP-60 expression vs control [8]: increased in both lines
SOD expression vs control [8]: remained unchanged
c-Myc expression vs control [8]: maintained
p53 expression vs control [8]: remained unchanged
